This note sets out measurements from ChEMBL document CHEMBL1201862, “PubChem BioAssay data set” (2004).

What all share (experiment): growth of human tumour cells (NCI), 48 h
The test system of assay [1] is HL-60.
Assay [2] concerns Hs-578T.
For assay [3], the system named is MDA-N.
Assay [4] relates to 786-0.
For assay [5], the system named is OVCAR-5.
The subject of assay [6] is CCRF-CEM.
Assay [7] concerns SK-MEL-5.
Assay [8] has as its system IGROV-1.
Assay [9] deals with SK-MEL-28.
Assay [10] deals with HOP-92.
Assay [11] has as its system MOLT-4.
In assay [12] the test system is NCI/ADR-RES.
For assay [13], the system named is BT-549.
Assay [14] relates to MDA-MB-231.
Assay [15] has as its system SF-268.
The subject of assay [16] is DU-145.
Assay [17] has as its system SW-620.
Assay [18] concerns KM12.
The test system of assay [19] is K562.
Assay [20] has as its system NCI-H522.

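Interpolation was linear, between the two tested concentrations surrounding the appropriate level; five concentrations were tested over 48 hours in 96-well plates. The concentration for 50% growth inhibition is given as GI50.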 Calls of active or inactive are those of the source. Rule as the data show it: active = GI50 up to about 1.1 µM and inactive = higher.

Regarding `Nc1nc(Cl)nc(NCc2ccccc2)n1`, the GI50 in assay [1] was 48 µM (inactive); in assay [2], > 100 µM (inactive); in assay [3] it was > 100 µM (inactive); in [4], > 100 µM (inactive); in assay [5], > 100 µM (inactive); in assay [6], > 100 µM (inactive). Also, the GI50 in assay [7], in assay [8], in [9], in [10], in assay [11] and in [12] was > 100 µM (inactive) in each case. The GI50 in assay [13], in assay [14], in assay [15], in assay [16], in [17] and in [18] was > 100 µM (inactive) in each case. Also, the GI50 in assay [19] is > 100 µM (inactive).
Turning to `COc1ccc(C2CC(=O)Oc3ccccc3O2)cc1` (centres undefined), the GI50 in assay [20] is 32.1 µM (inactive); in assay [1] it was 42.8 µM (inactive); in assay [2], 66.7 µM (inactive); in [3] it was 98.2 µM (inactive); in assay [4], > 100 µM (inactive); in assay [6], 52.8 µM (inactive). The GI50 in assay [7], in assay [8], in assay [9], in assay [11], in assay [12] and in [13] was > 100 µM (inactive) in each case. The GI50 in assay [14], in assay [15], in assay [16], in [17], in [18] and in [19] was > 100 µM (inactive) throughout.
In the case of `CN(C)CC(O)CNC(=O)Nc1ccccc1` (centres undefined), the GI50 in assay [1], in [2], in assay [3], in [4], in assay [5] and in assay [6] was > 100 µM (inactive) each time. The GI50 in assay [7], in assay [8], in [9], in [10], in [12] and in assay [13] was > 100 µM (inactive) each time. For the same molecule, the GI50 in [14], in assay [15], in assay [16], in assay [17], in assay [18] and in assay [19] was > 100 µM (inactive) each time.
`O=C1/C(=C\c2cccc(Oc3ccccc3)c2)SC(c2ccccc2)N1c1cccc(Cl)c1` (centres undefined): the GI50 in assay [2], in assay [3], in assay [4], in assay [5], in assay [7] and in assay [9] was > 100 µM (inactive) each time. The GI50 in assay [10], in assay [11], in [12], in [13], in [14] and in assay [15] was > 100 µM (inactive) each time. For the same molecule, the GI50 in assay [16] is > 100 µM (inactive); in assay [17] it was > 100 µM (inactive); in [18], 35.8 µM (inactive); in assay [19], > 100 µM (inactive).
On to `Cn1cnc2c(sc3nc4ccccc4n32)c1=N`, for which the GI50 in assay [1] is > 100 µM (inactive); in [2], 42.7 µM (inactive); in [3] it was > 100 µM (inactive); in [4] it was > 100 µM (inactive); in assay [5], > 100 µM (inactive); in assay [6], > 100 µM (inactive). The GI50 in assay [7] was > 100 µM (inactive); in assay [8], 22.6 µM (inactive); in [9], > 100 µM (inactive); in assay [10] it was > 100 µM (inactive); in [11] it was > 100 µM (inactive); in assay [12], > 100 µM (inactive). In addition, the GI50 in [13], in assay [14], in [15], in assay [16] and in [17] was > 100 µM (inactive) throughout.
Regarding `CC(=O)N[C@@H](Cc1ccc(O)cn1)C(=O)NCc1cccc(F)c1`, the GI50 in [20], in [1], in [2], in assay [3], in assay [4] and in assay [5] was > 100 µM (inactive) each time. Further, the GI50 in [6] is > 100 µM (inactive); in [7] it was > 100 µM (inactive); in assay [8], > 100 µM (inactive); in assay [9], > 100 µM (inactive); in [10], 30.9 µM (inactive); in assay [12] it was > 100 µM (inactive). Further, the GI50 in assay [13], in assay [15], in [16], in assay [17], in assay [18] and in [19] was > 100 µM (inactive) in each case.
Take `Oc1ccc(-c2c3ccccc3c(-c3ccc(OCCBr)cc3)c3ccccc23)cc1`: the GI50 in [20] was 35 µM (inactive); in assay [1] it was 47.5 µM (inactive); in assay [2], 24.3 µM (inactive); in assay [3], 26.4 µM (inactive); in assay [4] it was 21.9 µM (inactive); in assay [5] it was 27.1 µM (inactive). In addition, the GI50 in [6] is 60.1 µM (inactive); in [7], 19.1 µM (inactive); in assay [8], 22 µM (inactive); in assay [9] it was 27.9 µM (inactive); in [11], > 100 µM (inactive); in assay [12] it was 19.6 µM (inactive). For the same molecule, the GI50 is 30.1 µM (inactive) in assay [13]; 23.6 µM (inactive) in [14]; 56.1 µM (inactive) in [15]; > 100 µM (inactive) in [16]; 53.3 µM (inactive) in assay [17]; 29.4 µM (inactive) in assay [18]. Further, the GI50 in assay [19] was 42.1 µM (inactive).
On to `COC(=O)NN=C(c1ccc(Cl)cc1)c1ccc(Cl)cc1`, for which the GI50 in assay [20], in assay [1], in assay [2], in assay [3], in assay [4] and in assay [5] was > 100 µM (inactive) throughout. Besides, the GI50 is 67.6 µM (inactive) in assay [6]; > 100 µM (inactive) in assay [7]; 22.9 µM (inactive) in assay [8]; > 100 µM (inactive) in assay [9]; > 100 µM (inactive) in [11]; > 100 µM (inactive) in assay [12]. Further, the GI50 in [13] was 80.2 µM (inactive); in assay [14], > 100 µM (inactive); in assay [15], > 100 µM (inactive); in [16], 80.7 µM (inactive); in [17], > 100 µM (inactive); in [18] it was > 100 µM (inactive). The GI50 in assay [19] is > 100 µM (inactive).
`CN(C)CCN1C(=O)N(CCN(C)C)c2c3cc(O)ccc3nc3c([N+](=O)[O-])ccc1c23`: the GI50 was 16.6 µM (inactive) in assay [20]; 16.9 µM (inactive) in assay [2]; 13 µM (inactive) in assay [3]; 6.62 µM (inactive) in [4]; 0.538 µM (active) in [6]; 13.7 µM (inactive) in assay [7]. Further, the GI50 in assay [8] was 2.81 µM (inactive); in assay [9], 25.3 µM (inactive); in [10] it was 15.3 µM (inactive); in assay [12] it was 19.4 µM (inactive); in assay [13], 19.8 µM (inactive); in [14], 10.5 µM (inactive). Also, the GI50 in assay [15] is 8.47 µM (inactive); in assay [16], 10.7 µM (inactive); in assay [17], 4.92 µM (inactive); in assay [18] it was 7.91 µM (inactive); in assay [19], 4.57 µM (inactive).
Consider `COC(=O)[C@H](CNC(=O)/C=C/c1ccc(OC(C)=O)c(OC(C)=O)c1)NC(=O)/C=C/c1ccc(OC(C)=O)c(OC(C)=O)c1`, for which the GI50 in assay [1] is > 100 µM (inactive); in assay [2], > 100 µM (inactive); in assay [3], > 100 µM (inactive); in assay [4], > 100 µM (inactive); in assay [5], > 100 µM (inactive); in assay [6] it was 39.3 µM (inactive). Also, the GI50 in [7] was 62.7 µM (inactive); in [8], > 100 µM (inactive); in assay [9], > 100 µM (inactive); in assay [10], > 100 µM (inactive); in assay [11] it was > 100 µM (inactive); in assay [12], > 100 µM (inactive). Further, the GI50 is > 100 µM (inactive) in [13]; > 100 µM (inactive) in assay [14]; > 10 µM (inactive) in [15]; > 100 µM (inactive) in [16]; > 100 µM (inactive) in [17]; > 100 µM (inactive) in [18]. In addition, in [19], the GI50 is > 100 µM (inactive).
Turning to `CC(=O)O[C@H]1C(=O)[C@@]2(C)[C@H]([C@H](OC(=O)c3ccc(F)cc3)[C@]3(O)C[C@H](OC(=O)[C@H](O)[C@@H](NC(=O)c4ccccc4)c4ccccc4)C(C)=C1C3(C)C)[C@]1(OC(C)=O)CO[C@@H]1C[C@@H]2O`, the GI50 was 0.0116 µM (active) in assay [20]; 0.00469 µM (active) in assay [1]; 0.00536 µM (active) in [2]; 0.0025 µM (active) in [3]; 0.084 µM (active) in [4]; 0.0222 µM (active) in assay [5]. In addition, the GI50 was 0.00819 µM (active) in [6]; 0.023 µM (active) in [7]; 0.0233 µM (active) in [8]; 9.48 µM (inactive) in assay [9]; 0.0146 µM (active) in [11]; 9.84 µM (inactive) in assay [12]. Moreover, the GI50 is 0.64 µM (active) in assay [13]; 0.219 µM (active) in assay [14]; 0.0929 µM (active) in [15]; 0.0395 µM (active) in [16]; 0.0065 µM (active) in [17]; 0.0113 µM (active) in [18]. The GI50 in [19] was 0.00859 µM (active).
